Read-outs that look alike come from different tables or passages of the source.

The source of these data is PMC12056667 (Chemical Science, 2025).

The target in assay [1] is T1, Tet(X4) (Escherichia coli, UniProt A0A3T0V9Y5). The experiment in a line: biochemical. The method, then:
We then tested the binding of reported type 1 TDase inhibitors to Tet(X4) (Fig. 3f, ESI Fig. S17 ^†).[33,38,39] […] We also developed a complementary endpoint activity assay where the turnover of tigecycline by Tet(X4) in a 96-well plate was quenched by addition of 1%v/v formic acid and analysed chromatographically. The peak integrals of tigecycline and its hydroxylated degradation product at 254 nm following UPLC analysis were measured to determine turnover (Fig. 5a).
[…] A 3-fold, 10-point dilution series of the substrates and inhibitors was made in DMSO with a top concentration of 10 mM, unless otherwise stated, and transferred to the enzyme solution using a CyBi-Well liquid-handling robot (CyBio), 1 μL per well. On each plate, a column of no enzyme negative controls and no inhibitor (DMSO only) positive controls were included. The plate was incubated at 30 °C for 15 min. A solution containing 100 mM TAPS (pH 8.5), 40 μM tigecycline and 200 μM NADPH was then dispensed, with 49 μL per well. The plate was incubated at 30 °C for 20 min at 600 rpm. 10 μL of 10%v/v formic acid solution was then dispensed into all wells. Samples were analysed using an ACQUITY H-Class PLUS UPLC instrument (Waters) equipped with a pre-equilibrated ACQUITY BEH C18 column ([…], […], Waters) using a gradient of 1–50%v/v acetonitrile with 0.1%v/v formic acid in water with 0.1%v/v formic acid over 1.83 minutes at a flow rate of 0.5 mL min^−1. Instrument control and data processing were performed using MassLynx V4.1 software. The peaks representing tigecycline and 11a-hydroxy-tigecycline were integrated, used to calculate % conversion and then normalised between positive and negative controls. The normalised % response was plotted as a function of log10[Inhibitor], and the IC50 determined as described above.

For assay [2], the target named is T1, Tet(X4). The assay is described as follows: Absorbance activity assay (tigecycline turnover, A400). Conditions: for inhibition in the absorbance assay (in words): AZT up to 1 mM. It is filed as biochemical. From the text:
We then tested the binding of reported type 1 TDase inhibitors to Tet(X4) (Fig. 3f, ESI Fig. S17 ^†).[33,38,39] […] These compounds gave similar apparent IC50^app values, in accord with trends in IC50 measurements performed by Markley et al.[33] […] We also developed a complementary endpoint activity assay where the turnover of tigecycline by Tet(X4) in a 96-well plate was quenched by addition of 1%v/v formic acid and analysed chromatographically. The peak integrals of tigecycline and its hydroxylated degradation product at 254 nm following UPLC analysis were measured to determine turnover (Fig. 5a). As this method separates components by chromatography, it enables IC50 measurements independent of potential interference from UV-active inhibitors (Fig. 5b). […] The apparent synergy of AZT with tetracyclines against whole cells expressing Tet(X4)[40] is therefore interesting and may derive from the proposed ability of AZT to interfere with DNA synthesis in bacteria,[40,53] or other unidentified mechanisms. […] Note, however, that plumbagin and 2-MNQ are naphthoquinones, which are well-characterised redox-active pan-assay interference (PAINS) moieties.[54]
233 Absorbance Activity Assays
234 A solution containing 100 mM TAPS (pH 8.5), 2 µM FAD, 10 mM MgCl2 and 100 nM Tet(X4) was
235 dispensed into a 384 well µClear plate (Greiner Bio-One), 25 µL per well, using a microplate reagent
236 dispenser. A 3-fold, 10-point dilution series of the substrates and inhibitors was made in DMSO with
237 the highest concentration of 50 mM, unless otherwise stated, and transferred to the enzyme solution in
238 technical quadruplicate using a CyBi-Well (CyBio) liquid-handling robot (1 µL per well). On each plate,
239 a column of no enzyme negative controls and no inhibitor (DMSO only) positive controls were
240 included. The plate was briefly centrifuged (1000 rpm), then incubated (ambient temperature,15 min).
241 A solution containing 100 mM TAPS (pH 8.5), 50 µM tigecycline and 500 µM NADPH was then
242 dispensed, with 25 µL per well. The plate was briefly centrifuged (1000 rpm), then transferred to a
243 CLARIOstar Plus Microplate reader. The absorbance was monitored at wavelength […] over the
244 course of 2 hours (23 flashes / cycle, 180 s cycle time, 41 data points, 25 ° C). The initial rate was
245 calculated by measuring the rate of change of A400 during the initial linear regime. Initial rates were
246 normalised between positive and negative controls. The normalised % response was plotted as a
247 function of log10([Inhibitor]) in molar units, and the IC50 was determined as above. […]

For assay [3], the target named is T1, Tet(X4). The assay is described as follows: FP competitive displacement of probe 6. Conditions: for IC50: 25 nM 6, 40 nM Tet(X4), 5 mM MgCl2, 1 μM FAD, 100 mM Tris pH 7.0, 0.01% Triton X-100; for displacement of probe 6 / competitive binding (in words): up to a maximum concentration of 100 μM. It is filed as binding. The essentials: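 FP displacement of probe 6 (added as 50 nM solution) from Tet(X4) (2× mix: 80 nM enzyme, 2 μM FAD, 10 mM MgCl2), 30 min at ambient temperature. Dose-response used 3-fold, 10-point DMSO series (top 5 or 0.5 mM stock). IC50^app came from a Hill fit of control-normalised response. Library screening used 10 μM compound, 0.1% DMSO, […].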

Assay [4] deals with T1, Tet(X4). The assay is described as follows: Fluorescence polarisation binding assay of probes with purified TDase. Conditions: 25 nM probe, 5 mM MgCl2, 1 μM FAD, 100 mM Tris pH 7.0, 0.01% Triton X-100; read-out: Kd. The method, then:
(§1) NADPH was not included to prevent turnover of the probe to the hydroxylated product, which would likely have a lower binding affinity than the initial probes. Screens were conducted in pH 7.0 buffer with addition of 0.01% Triton-X100 detergent in non-binding plates to minimise adsorption to the plate wells.[45]
Aliquots of TDases were thawed and serially diluted with the assay buffer (100 mM Tris, pH 7.0 with 0.01% Triton X-100) in a V-bottom 96-well plate (Greiner Bio-One). 12.5 μL of each concentration of enzyme was transferred in quadruplicate to a 384-well black, non-binding microtiter plate (Greiner Bio-One). […] 12.5 μL of this solution was added to wells containing enzyme. A negative control of 12.5 μL of the probe solution with 12.5 μL of the assay buffer was included on each plate. The plate was briefly centrifuged (1000 rpm), then incubated at ambient temperature for 30 min before measuring the FP response using a PHERAstar FS microplate reader (BMG Labtech) equipped with an FP optic module (excitation = 540 ± 20 nm, Emission = 590 ± 20 nm, 200 flashes per well). ΔmP values were calculated by subtracting the average mP of the negative controls from the mP measured for each well. To calculate Kd values, the derived ΔmP values were plotted as a function of enzyme concentration and a one-site specific binding model was applied (GraphPad Prism 9.4.1).
For orientation: In fluorescence polarisation assays a small probe gives low polarisation when free and higher when bound to something large.

A further assay deals with T2, Tet(50) (Unknown prokaryotic organism, UniProt A0A059WYP6).
T2 construct: made in house; host or cells: E. coli BL21(DE3)
Described as above. The method, then: as §1
(§2) Aliquots of TDases were thawed and serially diluted with the assay buffer (100 mM Tris, pH 7.0 with 0.01% Triton X-100) in a V-bottom 96-well plate (Greiner Bio-One). 12.5 μL of each concentration of enzyme was transferred in quadruplicate to a 384-well black, non-binding microtiter plate (Greiner Bio-One). Aliquots of 2 mM stock of fluorescent probes 5 and 6 in DMSO were thawed and diluted to 50 nM in the assay buffer with 2 μM FAD and 10 mM MgCl2. 12.5 μL of this solution was added to wells containing enzyme. A negative control of 12.5 μL of the probe solution with 12.5 μL of the assay buffer was included on each plate. The plate was briefly centrifuged (1000 rpm), then incubated at ambient temperature for 30 min before measuring the FP response using a PHERAstar FS microplate reader (BMG Labtech) equipped with an FP optic module (excitation = 540 ± 20 nm, Emission = 590 ± 20 nm, 200 flashes per well). ΔmP values were calculated by subtracting the average mP of the negative controls from the mP measured for each well. To calculate Kd values, the derived ΔmP values were plotted as a function of enzyme concentration and a one-site specific binding model was applied (GraphPad Prism 9.4.1).

Another assay concerns the target T3, Tet(X2) (Bacteroides thetaiotaomicron, UniProt Q93L51).
T3 construct: For Tet(X2), the full-length protein was prepared rather that the Δ1–10 mutant used previously for crystallographic studies; made in house; host or cells: E. coli BL21(DE3)
Described as above. The method, then: as §1, §2

The target in another assay is Tet(X5). Described as above. Conditions: 25 nM probe, 5 mM MgCl2, 1 μM FAD, 100 mM Tris pH 7.0, 0.01% Triton X-100. The method, then: as §1, §2
The next assay addresses Tet(X7). The assay is described as above. Particulars: 25 nM probe, 5 mM MgCl2, 1 μM FAD, 100 mM Tris pH 7.0, 0.01% Triton X-100. The method, then:
as §1, §2

Where [5] appears, read: 20 μM tigecycline, 50 nM Tet(X4), 100 μM NADPH, 5 mM MgCl2, 1 μM FAD, 100 mM TAPS pH 8.5, read-out: IC50, UPLC assay.
The mark [6] stands for this setting: 25 μM tigecycline, 50 nM Tet(X4), 250 μM NADPH, 5 mM MgCl2, 1 μM FAD, 100 mM TAPS pH 8.5, read-out: IC50, Absorbance assay.

For the compound `CC1=CC(=O)c2c(O)cccc2C1=O` [Plumbagin], the IC50 was 37.2 ± 8.2 µM on Tet(X4) [1] (setting [5]); 49.1 ± 4.9 µM on Tet(X4) [2]; more than 100 µM on Tet(X4) [3] (IC50app, FP assay). Also, at Tet(X4) [1] (AZT up to 100 μM), the “inhibition in the UPLC assay (in words)” value is given as “moderate”. In addition, on Tet(X4) [2], the “inhibition in the absorbance assay (in words)” value is recorded as “moderate”. Moreover, the “displacement of probe 6 / competitive binding (in words)” value on Tet(X4) [3] is given as “minimal competitive binding”.

With `Cc1c2c(c(O)c3c(O)c(Br)ccc13)C(=O)[C@@]1(O)C(=O)C(C(N)=O)=C(O)[C@@H](N(C)C)[C@@H]1C2` [9-Bromo-anhydrotetracycline], the IC50 on Tet(X4) [1] (setting [5]) was determined as 2.7 ± 0.5 µM; on Tet(X4) [2] (setting [6]), 4.5 ± 0.6 µM; on Tet(X4) [3] (read-out: IC50app, FP assay), 0.0404 ± 0.0105 µM. Moreover, the “displacement of probe 6 / competitive binding (in words)” value at Tet(X4) [3] is on record as “clear dose-dependent displacement”.

In the case of `Cc1cn([C@H]2C[C@H](N=[N+]=[N-])[C@@H](CO)O2)c(=O)[nH]c1=O` [Azidothymidine], at Tet(X4) [1], the “inhibition in the UPLC assay (in words)” value is reported as “No inhibition”. Besides, the IC50 is more than 100 µM against Tet(X4) [1] (IC50, UPLC assay); more than 1000 µM at Tet(X4) [2]; more than 100 µM on Tet(X4) [3] (IC50app, FP assay). Also, the “inhibition in the absorbance assay (in words)” value at Tet(X4) [2] was “No inhibition”. The “displacement of probe 6 / competitive binding (in words)” value on Tet(X4) [3] is given as “minimal competitive binding”.

`COC1=CC(=O)c2ccccc2C1=O` [2-Methoxy-1,4-naphthoquinone]: the IC50 at Tet(X4) [1] (setting [5]) was more than 100 µM; on Tet(X4) [2] (setting [6]) it was 421 ± 50 µM; at Tet(X4) [3] (IC50app, FP assay), more than 100 µM. Moreover, the “inhibition in the UPLC assay (in words)” value on Tet(X4) [1] (AZT up to 100 μM) is recorded as “weak”. Besides, the “inhibition in the absorbance assay (in words)” value on Tet(X4) [2] is on record as “weak”. In addition, the “displacement of probe 6 / competitive binding (in words)” value on Tet(X4) [3] is “minimal competitive binding”.

In general, Kd refers to the concentration at which binding is half-saturated. Turning to `CN(C)c1ccc2c(-c3ccc(C(=O)NCC(=O)Nc4cc(N(C)C)c5c(c4O)C(=O)C4=C(O)[C@]6(O)C(=O)C(C(N)=O)=C(O)[C@H](N(C)C)[C@@H]6C[C@@H]4C5)cc3C(=O)[O-])c3ccc(=[N+](C)C)cc-3oc2c1` [Probe 5], the Kd is 0.0465 ± 0.0041 µM on Tet(X4) [4]; more than 5 µM at Tet(50) (25 nM probe, 5 mM MgCl2, 1 μM FAD, 100 mM Tris pH 7.0, 0.01% Triton X-100); 0.0669 ± 0.0103 µM on Tet(X2); 0.0299 ± 0.0027 µM at Tet(X5); 0.126 ± 0.015 µM on Tet(X7). For the same compound, the “binding to Tet(50) (in words)” value on Tet(50) (up to a concentration of 5 μM of enzyme) was “no detectable binding”.
